Data reported in the supplement of paper PMC4862054.

How the values were obtained:
Details in all cases: incubation time: 72 h
MCF-10A [1] = test: normalised response (% of control), CellTiter-Glo; higher = more viable cells (100 = DMSO, 0 = benzethonium chloride kill control)
Procedure, shortened: (§1)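 Breast cancer cell lines were exposed for 72 h in 384-well plates to compound at 5 concentrations, 10-fold apart, covering a 10,000-fold range fixed for each compound. Plates were read for CellTox Green fluorescence and CellTiter-Glo luminescence and normalised to 0.1 % DMSO (100) and a positive kill control (0). Each value is the normalised signal at one concentration of the series.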

HCC1937 = test: as above
Procedure, shortened: as §1

Hs578T [2] = test: as above
Procedure, shortened: as §1

CAL-51 [3] = test: as above
Procedure, shortened: as §1

MDA-MB-468 [4] = test: as above
Procedure, shortened: as §1

HCC1143 [5] = test: as above
Procedure, shortened: as §1

CAL-148 [6] = test: as above
Procedure, shortened: as §1

CAL-85-1 [7] = test: as above
Procedure, shortened: as §1

HCC1599 [8] = test: as above
Procedure, shortened: as §1

BT-474 [9] = test: as above
Procedure, shortened: as §1

MDA-MB-231 [10] = test: as above
Procedure, shortened: as §1

CAL-120 [11] = test: as above
Procedure, shortened: as §1

MDA-MB-453 [12] = test: as above
Procedure, shortened: as §1

HDQ-P1 = test: as above
Procedure, shortened: as §1

MDA-MB-436 = test: as above
Procedure, shortened: as §1

MFM-223 [13] = test: as above
Procedure, shortened: as §1

DU-4475 [14] = test: as above
Procedure, shortened: as §1

BT-549 [15] = test: as above
Procedure, shortened: as §1

SK-BR-3 = test: as above
Procedure, shortened: as §1

MCF-10A [16] = test: normalised response (% of control), CellTox Green; higher = less cell death (100 = DMSO, 0 = benzethonium chloride kill control)
Procedure, shortened: as §1

Hs578T [17] = test: as above
Procedure, shortened: as §1

CAL-51 [18] = test: as above
Procedure, shortened: as §1

MDA-MB-468 [19] = test: as above
Procedure, shortened: as §1

HCC1143 [20] = test: as above
Procedure, shortened: as §1

CAL-148 [21] = test: as above
Procedure, shortened: as §1

CAL-85-1 [22] = test: as above
Procedure, shortened: as §1

HCC1599 [23] = test: as above
Procedure, shortened: as §1

BT-474 [24] = test: as above
Procedure, shortened: as §1

MDA-MB-231 [25] = test: as above
Procedure, shortened: as §1

CAL-120 [26] = test: as above
Procedure, shortened: as §1

MDA-MB-453 [27] = test: as above
Procedure, shortened: as §1

MFM-223 [28] = test: as above
Procedure, shortened: as §1

DU-4475 [29] = test: as above
Procedure, shortened: as §1

BT-549 [30] = test: as above
Procedure, shortened: as §1

SMILES | normalised response (MCF-10A [1]) [%] | normalised response (HCC1937) [%] | normalised response (Hs578T [2]) [%] | normalised response (CAL-51 [3]) [%] | normalised response (MDA-MB-468 [4]) [%] | normalised response (HCC1143 [5]) [%] | normalised response (CAL-148 [6]) [%] | normalised response (CAL-85-1 [7]) [%] | normalised response (HCC1599 [8]) [%] | normalised response (BT-474 [9]) [%] | normalised response (MDA-MB-231 [10]) [%] | normalised response (CAL-120 [11]) [%] | normalised response (MDA-MB-453 [12]) [%] | normalised response (HDQ-P1) [%] | normalised response (MDA-MB-436) [%] | normalised response (MFM-223 [13]) [%] | normalised response (DU-4475 [14]) [%] | normalised response (BT-549 [15]) [%] | normalised response (SK-BR-3) [%] | normalised response (MCF-10A [16]) [%] | normalised response (Hs578T [17]) [%] | normalised response (CAL-51 [18]) [%] | normalised response (MDA-MB-468 [19]) [%] | normalised response (HCC1143 [20]) [%] | normalised response (CAL-148 [21]) [%] | normalised response (CAL-85-1 [22]) [%] | normalised response (HCC1599 [23]) [%] | normalised response (BT-474 [24]) [%] | normalised response (MDA-MB-231 [25]) [%] | normalised response (CAL-120 [26]) [%] | normalised response (MDA-MB-453 [27]) [%] | normalised response (MFM-223 [28]) [%] | normalised response (DU-4475 [29]) [%] | normalised response (BT-549 [30]) [%]
Cc1ccc(NC(=O)c2ccc(CN3CCN(C)CC3)cc2)cc1Nc1nccc(-c2cccnc2)n1 [Imatinib] (1000 nM) | 111 | 93.6 | 105 | 96.3 | 99.9 | 99.2 | 103 | 104 | 101 | 102 | 106 | 108 | 111 | 101 | 102 | 104 | 105 | 106 | 105 | 101 | 104 | 103 | 137 | 113 | 101 | 110 | 104 | 98.8 | 107 | 106 | 103 | 105 | 101 | 121
CNNCc1ccc(C(=O)NC(C)C)cc1 [Procarbazine] (1 nM) | 111 | 111 | 108 | 88.6 | 104 | 112 | 104 | 103 | 109 | 102 | 104 | 101 | 108 | 104 | 101 | 105 | 103 | 111 | 112 |  |  |  |  |  |  |  |  |  |  |  |  |  |  | 
Cn1cncc1[C@@](N)(c1ccc(Cl)cc1)c1ccc2c(c1)c(-c1cccc(Cl)c1)cc(=O)n2C [Tipifarnib] (1 nM) | 94.5 | 93.4 | 96.2 | 90.2 | 93.4 | 94.6 | 97.3 | 102 | 93.1 | 89.8 | 99.5 | 92.2 | 109 | 93.5 | 88 | 96.3 | 103 | 102 | 102 |  |  |  |  |  |  |  |  |  |  |  |  |  |  | 
CCCCCCCCc1ccc(CCC(N)(CO)CO)cc1 [Fingolimod] (1 nM) | 103 | 95.9 | 100 | 97.7 | 107 | 96.8 | 97.3 | 103 | 106 | 97.7 | 98 | 96.4 | 109 | 98.6 | 92.8 | 103 | 101 | 106 | 102 |  |  |  |  |  |  |  |  |  |  |  |  |  |  | 
O=C1NC(=O)[C@@H](c2cn3c4c(cccc24)CCC3)[C@@H]1c1c[nH]c2ccccc12 [Tivantinib] (1 nM) | 106 | 101 | 101 | 106 | 104 | 98.9 | 100 | 96.1 | 104 | 107 | 98.2 | 100 | 106 | 98.7 | 109 | 97.9 | 98 | 101 | 113 |  |  |  |  |  |  |  |  |  |  |  |  |  |  | 
C/C(=C\c1csc(C)n1)[C@@H]1C[C@@H]2O[C@]2(C)CCC[C@H](C)[C@H](O)[C@@H](C)C(=O)C(C)(C)[C@@H](O)CC(=O)O1 [Patupilone] (0.1 nM) | 102 | 98 | 99.3 | 81.4 | 107 | 97.6 | 113 | 104 | 108 | 110 | 101 | 104 | 101 | 105 | 98 | 103 | 106 | 98.7 | 98 |  |  |  |  |  |  |  |  |  |  |  |  |  |  | 
Nc1nc(OCc2cc(Br)cs2)c2[nH]cnc2n1 [Lomeguatrib] (1 nM) | 108 | 103 | 99 | 118 | 96.2 | 97.6 | 92.5 | 99.9 | 90.9 | 100 | 101 | 101 | 97.6 | 104 | 110 | 102 | 99.2 | 103 | 102 |  |  |  |  |  |  |  |  |  |  |  |  |  |  | 
C[C@]12CC[C@H](O)CC1=CC[C@@H]1[C@@H]2CC[C@]2(C)C(c3cccnc3)=CC[C@@H]12 [Abiraterone] (0.5 nM) | 102 | 96.2 | 102 | 95.7 | 109 | 94.7 | 108 | 106 | 119 | 104 | 105 | 97.6 | 114 | 106 | 94.7 | 98 | 94.5 | 105 | 106 |  |  |  |  |  |  |  |  |  |  |  |  |  |  | 
CC(C)c1c(C(=O)Nc2ccccc2)c(-c2ccccc2)c(-c2ccc(F)cc2)n1CC[C@@H](O)C[C@@H](O)CC(=O)O [Atorvastatin] (10 nM) | 100 | 99.7 | 101 | 76.1 | 104 | 103 | 101 | 98.9 | 104 | 100 | 96.9 | 96.8 | 104 | 101 | 96.5 | 102 | 98.7 | 90 | 102 |  |  |  |  |  |  |  |  |  |  |  |  |  |  | 
Cn1c(=O)n(-c2ccc(C(C)(C)C#N)cc2)c2c3cc(-c4cnc5ccccc5c4)ccc3ncc21 [Dactolisib] (0.1 nM) | 105 | 98.8 | 102 | 107 | 110 | 97.4 | 102 | 101 | 122 | 104 | 105 | 97.4 | 109 | 102 | 99.6 | 108 | 103 | 100 | 111 |  |  |  |  |  |  |  |  |  |  |  |  |  |  | 
CC(C)(C#N)c1cc(Cn2cncn2)cc(C(C)(C)C#N)c1 [Anastrozole] (10 nM) | 110 | 100 | 105 | 93.7 | 98.8 | 103 | 99.3 | 94.9 | 102 | 101 | 100 | 96.2 | 104 | 94.3 | 99.4 | 104 | 104 | 99 | 105 |  |  |  |  |  |  |  |  |  |  |  |  |  |  | 
CC(C)(C#N)c1cc(Cn2cncn2)cc(C(C)(C)C#N)c1 [Anastrozole] (1 nM) | 102 | 99.7 | 99.3 | 89.9 | 102 | 95.5 | 94.8 | 102 | 110 | 100 | 96.7 | 101 | 112 | 103 | 95.2 | 106 | 105 | 109 | 111 |  |  |  |  |  |  |  |  |  |  |  |  |  |  | 
Nc1ncnc2c1c(COc1cccc(Cl)c1)nn2C1CCOCC1 (1 nM) | 114 | 100 | 104 | 105 | 94.7 | 106 | 105 | 95.7 | 107 | 102 | 103 | 95.4 | 102 | 100 | 102 | 102 | 101 | 104 | 109 |  |  |  |  |  |  |  |  |  |  |  |  |  |  | 
CN(C)CCN1C(=O)c2cccc3cc(N)cc(c23)C1=O [Amonafide] (1 nM) | 88.6 | 99.3 | 97.6 | 120 | 94.7 | 94 | 99.9 | 101 | 102 | 104 | 102 | 99.7 | 105 | 97.3 | 100 | 103 | 101 | 101 | 103 |  |  |  |  |  |  |  |  |  |  |  |  |  |  | 
CC(C)c1c(C(=O)Nc2ccccc2)c(-c2ccccc2)c(-c2ccc(F)cc2)n1CC[C@@H](O)C[C@@H](O)CC(=O)O [Atorvastatin] (1 nM) | 99.1 | 98.1 | 98.9 | 89.8 | 94.2 | 98.2 | 103 | 98.7 | 96.5 | 94 | 95.2 | 92.8 | 107 | 95.9 | 95.5 | 97.6 | 100 | 96.9 | 103 |  |  |  |  |  |  |  |  |  |  |  |  |  |  | 
